The experiment deals with HPK1. The experiment is described as follows: HPK1 immune complex in vitro kinase (IVK) assay, endogenous HPK1 from treated Jurkat cells. The format is cell-based, human. As to conditions: Lck (JCaM1), ZAP-70 (p116), Lat (ANJ-3), SLP-76 (J14) deficient lines, 10 pM PGE2.

“Also recorded” adds a separate entry of the source.

The values below come from patent US20070087988A1, “Hematopoietic progenitor kinase 1 for modulation of an immune response” (New York University, priority 2005, published 2007).

With `CCCCC[C@H](O)/C=C/[C@H]1[C@H](O)CC(=O)[C@@H]1C/C=C\CCCC(=O)O` [PGE2, prostaglandin E2], the “HPK1 kinase activity upon PGE2 stimulation in signaling-mutant Jurkat lines” value is “did not interfere with the ability of HPK1 to respond; also recorded: all Jurkat cell lines could activate HPK1 kinase activity”.
